Measured values reported in patent US6355799B1, “Substituted benzene compounds, process for their preparation, and herbicidal and defoliant compositions containing them” (ISK Americas Incorporated, priority 1997, dated 2002).

Legend:
Format in all cases: in vivo
[1] = system: redroot pigweed (Amaranthus retroflexus, AMARE); experiment: Pre-emerge test, greenhouse herbicide activity screening; conditions: pre-emerge, 14 days after application, scale 0-100
How it was run: (§1)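 Compounds in acetone were track-sprayed at 187 l/ha, 15–1000 g ai/ha, onto sandy loam pots. Pre-emerge seeds were sown one day before spraying, with surface watering afterwards. Post-emerge plants were at the 2–3 leaf stage and sprayed with 0.25% v/v non-ionic surfactant. Injury was rated 0–100 at 14 days.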

[2] = system: barnyardgrass (Echinochloa crus-galli, ECHCG); experiment: as above; conditions: pre-emerge, 14 days after application, scale 0-100
How it was run: (§2)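 Compounds in acetone were track-sprayed at 15–1000 g ai/ha: pre-emergence onto soil sown the previous day, then top-watered to incorporate and later bottom-watered; post-emergence onto 2–3 leaf plants with 0.25% v/v surfactant, bottom-watered only. Ratings on a 0–100 phytotoxicity scale were taken at day 14.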

[3] = system: common ragweed (Ambrosia artemisizfolia L., AMBEL); experiment: as above; conditions: pre-emerge, 14 days after application, scale 0-100
How it was run: as §2

[4] = system: green foxtail (Setaria viridis, SETVI); experiment: as above; conditions: pre-emerge, 14 days after application, scale 0-100
How it was run: as §2

[5] = system: ivyleaf morningglory (Ipomoea hederacea, IPOHE); experiment: as above; conditions: pre-emerge, 14 days after application, scale 0-100
How it was run: as §2

[6] = system: johnsongrass (Sorghum halepense, SORHA); experiment: as above; conditions: pre-emerge, 14 days after application, scale 0-100
How it was run: as §2

[7] = system: lambsquarters (Chenopodium album, CHEAL); experiment: as above; conditions: pre-emerge, 14 days after application, scale 0-100
How it was run: as §2

[8] = system: large crabgrass (Digitaria sanguinalis, DIGSA); experiment: as above; conditions: pre-emerge, 14 days after application, scale 0-100
How it was run: as §2

[9] = system: sicklepod (Cassia obtusifolia, CASOB); experiment: as above; conditions: pre-emerge, 14 days after application, scale 0-100
How it was run: as §2

[10] = system: velvetleaf (Abutilon theophrasti, ABUTH); experiment: as above; conditions: pre-emerge, 14 days after application, scale 0-100
How it was run: as §2

[11] = system: field corn (Zea mays L., var. Dekalb 535, CORN); experiment: Pre-emerge test, crop safety; conditions: pre-emerge, 14 days after application, scale 0-100
How it was run: (§3)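 Applied at 15–1000 g ai/ha from acetone in 187 l/ha spray volume. Post-emergence applications included 0.25% v/v non-ionic surfactant and reached plants sown 8–21 days before. Pre-emergence applications were incorporated by surface watering. Efficacy or crop damage was rated on a 0–100 scale after 14 days.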

[12] = system: upland rice (Oryza sp., var. Tebonnet, RICE); experiment: Pre-emerge test, crop safety; conditions: pre-emerge, 14 days after application, scale 0-100
How it was run: as §3

[13] = system: barnyardgrass (Echinochloa crus-galli, ECHCG); experiment: Post-emerge test, greenhouse herbicide activity screening; conditions: post-emerge, 14 days after application, rating scale 0-100
How it was run: as §1

[14] = system: green foxtail (Setaria viridis, SETVI); experiment: as above; conditions: post-emerge, 14 days after application, rating scale 0-100
How it was run: as §1

[15] = system: ivyleaf morningglory (Ipomoea hederacea, IPOHE); experiment: as above; conditions: post-emerge, 14 days after application, rating scale 0-100
How it was run: as §1

[16] = system: johnsongrass (Sorghum halepense, SORHA); experiment: as above; conditions: post-emerge, 14 days after application, rating scale 0-100
How it was run: as §1

[17] = system: lambsquarters (Chenopodium album, CHEAL); experiment: as above; conditions: post-emerge, 14 days after application, rating scale 0-100
How it was run: as §1

[18] = system: large crabgrass (Digitaria sanguinalis, DIGSA); experiment: as above; conditions: post-emerge, 14 days after application, rating scale 0-100
How it was run: as §1

[19] = system: redroot pigweed (Amaranthus retroflexus, AMARE); experiment: as above; conditions: post-emerge, 14 days after application, rating scale 0-100
How it was run: as §1

[20] = system: sicklepod (Cassia obtusifolia, CASOB); experiment: as above; conditions: post-emerge, 14 days after application, rating scale 0-100
How it was run: as §1

[21] = system: velvetleaf (Abutilon theophrasti, ABUTH); experiment: as above; conditions: post-emerge, 14 days after application, rating scale 0-100
How it was run: as §1

[22] = system: field corn (Zea mays L., var. Dekalb 535, CORN); experiment: Post-emerge test, crop safety; conditions: post-emerge, 14 days after application, rating scale 0-100
How it was run: (§4)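 Rating: 0–100 visual injury, 14 DAA. Application: acetone, 187 l/ha, 15–1000 g ai/ha, flat-fan track sprayer with nozzle 40–45 cm above soil or canopy. Post-emerge runs used 0.25% v/v surfactant on 2–3 leaf plants.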

[23] = system: upland rice (Oryza sp., var. Tebonnet, RICE); experiment: Post-emerge test, crop safety; conditions: post-emerge, 14 days after application, rating scale 0-100
How it was run: as §4

Compound: CCCSCC(=O)Nc1c(OC)c(Cl)cc(F)c1-n1c(=O)cc(C(F)(F)F)n(C)c1=O [2-174]
- phytotoxicity rating AMARE ([1]; 63 g ai/ha): 90
- phytotoxicity rating AMARE ([1]; 250 g ai/ha): 100
- phytotoxicity rating ECHCG ([2]; 63 g ai/ha): 0
- phytotoxicity rating ECHCG ([2]; 250 g ai/ha): 60
- phytotoxicity rating AMBEL ([3]; 63 g ai/ha): 10
- phytotoxicity rating AMBEL ([3]; 250 g ai/ha): 90
- phytotoxicity rating SETVI ([4]; 63 g ai/ha): 20
- phytotoxicity rating SETVI ([4]; 250 g ai/ha): 90
- phytotoxicity rating IPOHE ([5]; 63 g ai/ha): 30
- phytotoxicity rating IPOHE ([5]; 250 g ai/ha): 100
- phytotoxicity rating SORHA ([6]; 63 g ai/ha): 10
- phytotoxicity rating SORHA ([6]; 250 g ai/ha): 90
- phytotoxicity rating CHEAL ([7]; 63 g ai/ha): 80
- phytotoxicity rating CHEAL ([7]; 250 g ai/ha): 100
- phytotoxicity rating DIGSA ([8]; 63 g ai/ha): 20
- phytotoxicity rating DIGSA ([8]; 250 g ai/ha): 70
- phytotoxicity rating CASOB ([9]; 63 g ai/ha): 40
- phytotoxicity rating CASOB ([9]; 250 g ai/ha): 80
- phytotoxicity rating ABUTH ([10]; 63 g ai/ha): 100
- phytotoxicity rating ABUTH ([10]; 250 g ai/ha): 100
- phytotoxicity rating CORN (crop damage) ([11]; 63 g ai/ha): 0
- phytotoxicity rating CORN (crop damage) ([11]; 250 g ai/ha): 60
- phytotoxicity rating RICE (crop damage) ([12]; 63 g ai/ha): 10
- phytotoxicity rating RICE (crop damage) ([12]; 250 g ai/ha): 50
- ECHCG phytotoxicity rating ([13]; 63 g ai/ha): 0
- ECHCG phytotoxicity rating ([13]; 250 g ai/ha): 0
- SETVI phytotoxicity rating ([14]; 63 g ai/ha): 10
- SETVI phytotoxicity rating ([14]; 250 g ai/ha): 10
- IPOHE phytotoxicity rating ([15]; 63 g ai/ha): 70
- IPOHE phytotoxicity rating ([15]; 250 g ai/ha): 80
- SORHA phytotoxicity rating ([16]; 63 g ai/ha): 0
- SORHA phytotoxicity rating ([16]; 250 g ai/ha): 0
- CHEAL phytotoxicity rating ([17]; 63 g ai/ha): 55
- CHEAL phytotoxicity rating ([17]; 250 g ai/ha): 85
- DIGSA phytotoxicity rating ([18]; 63 g ai/ha): 0
- DIGSA phytotoxicity rating ([18]; 250 g ai/ha): 10
- AMARE phytotoxicity rating ([19]; 63 g ai/ha): 60
- AMARE phytotoxicity rating ([19]; 250 g ai/ha): 60
- CASOB phytotoxicity rating ([20]; 63 g ai/ha): 60
- CASOB phytotoxicity rating ([20]; 250 g ai/ha): 75
- ABUTH phytotoxicity rating ([21]; 63 g ai/ha): 60
- ABUTH phytotoxicity rating ([21]; 250 g ai/ha): 80
- CORN phytotoxicity rating (crop damage) ([22]; 63 g ai/ha): 10
- CORN phytotoxicity rating (crop damage) ([22]; 250 g ai/ha): 25
- RICE phytotoxicity rating (crop damage) ([23]; 63 g ai/ha): 20
- RICE phytotoxicity rating (crop damage) ([23]; 250 g ai/ha): 20
